Test results: US20230286970A1, “NOVEL OXADIAZOLE-BASED SELECTIVE HDAC6 INHIBITORS” (ITALFARMACO S.P.A., priority 2020, published 2023)

How the values were obtained:
[1] = Stability in human plasma; details: after 4 hours, 37° C.
Stability in rat plasma = details: after 4 hours, 37° C.
[2] = Stability to Phase I metabolism in human S9 liver fraction; details: after 90 minutes, 37° C.
recombinant human HDAC1 = recombinant human HDAC1 (Homo sapiens (Human), UniProt Q13547); test: Enzymatic screening, HDAC1 inhibition (fluorogenic FdL_G substrate); format: biochemical
In short: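 Recombinant human HDAC1 inhibition was measured fluorometrically using the FLUOR DE LYS-Green (FdL_G) substrate. Compounds at 8 doses (1% DMSO final) in Tris-HCl pH 8 buffer with NaCl, Tween-20 and glycerol were preincubated in triplicate with enzyme and 1 mg/mL BSA, then given substrate. Developer I plus 2 μM TSA was added, and fluorescence read after 25 minutes in the dark.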

[3] = Stability to Phase I metabolism in rat S9 liver fraction; details: after 90 minutes, 37° C.
recombinant human HDAC6 = recombinant human HDAC6 (Homo sapiens (Human), UniProt Q9UBN7); test: Enzymatic screening, HDAC6 inhibition (fluorogenic FdL_G substrate); format: biochemical
In short: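 Enzyme was preincubated with compound (8 doses, triplicate, 1% DMSO) in 25 mM Tris-HCl pH 8, 130 mM NaCl, 0.05% Tween-20, 10% glycerol, with BSA. A FLUOR DE LYS-Green substrate was then added, and fluorescence was read after developer plus 2 μM TSA.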

recombinant human HDAC1, sequence (Q13547 whole entry): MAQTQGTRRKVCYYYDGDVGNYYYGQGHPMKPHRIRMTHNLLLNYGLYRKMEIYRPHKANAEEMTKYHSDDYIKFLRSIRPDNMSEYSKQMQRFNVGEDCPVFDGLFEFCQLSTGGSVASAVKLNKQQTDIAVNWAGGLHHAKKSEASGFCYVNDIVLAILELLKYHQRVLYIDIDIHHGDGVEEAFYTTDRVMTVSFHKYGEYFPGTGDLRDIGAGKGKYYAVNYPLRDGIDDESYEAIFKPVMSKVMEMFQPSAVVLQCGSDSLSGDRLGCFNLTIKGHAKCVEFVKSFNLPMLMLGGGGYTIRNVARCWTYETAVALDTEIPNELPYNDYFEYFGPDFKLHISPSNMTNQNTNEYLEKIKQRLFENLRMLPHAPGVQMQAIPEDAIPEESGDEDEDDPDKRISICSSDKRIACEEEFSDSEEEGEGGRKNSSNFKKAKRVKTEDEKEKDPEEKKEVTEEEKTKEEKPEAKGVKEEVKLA
recombinant human HDAC6, sequence (Q9UBN7 whole entry): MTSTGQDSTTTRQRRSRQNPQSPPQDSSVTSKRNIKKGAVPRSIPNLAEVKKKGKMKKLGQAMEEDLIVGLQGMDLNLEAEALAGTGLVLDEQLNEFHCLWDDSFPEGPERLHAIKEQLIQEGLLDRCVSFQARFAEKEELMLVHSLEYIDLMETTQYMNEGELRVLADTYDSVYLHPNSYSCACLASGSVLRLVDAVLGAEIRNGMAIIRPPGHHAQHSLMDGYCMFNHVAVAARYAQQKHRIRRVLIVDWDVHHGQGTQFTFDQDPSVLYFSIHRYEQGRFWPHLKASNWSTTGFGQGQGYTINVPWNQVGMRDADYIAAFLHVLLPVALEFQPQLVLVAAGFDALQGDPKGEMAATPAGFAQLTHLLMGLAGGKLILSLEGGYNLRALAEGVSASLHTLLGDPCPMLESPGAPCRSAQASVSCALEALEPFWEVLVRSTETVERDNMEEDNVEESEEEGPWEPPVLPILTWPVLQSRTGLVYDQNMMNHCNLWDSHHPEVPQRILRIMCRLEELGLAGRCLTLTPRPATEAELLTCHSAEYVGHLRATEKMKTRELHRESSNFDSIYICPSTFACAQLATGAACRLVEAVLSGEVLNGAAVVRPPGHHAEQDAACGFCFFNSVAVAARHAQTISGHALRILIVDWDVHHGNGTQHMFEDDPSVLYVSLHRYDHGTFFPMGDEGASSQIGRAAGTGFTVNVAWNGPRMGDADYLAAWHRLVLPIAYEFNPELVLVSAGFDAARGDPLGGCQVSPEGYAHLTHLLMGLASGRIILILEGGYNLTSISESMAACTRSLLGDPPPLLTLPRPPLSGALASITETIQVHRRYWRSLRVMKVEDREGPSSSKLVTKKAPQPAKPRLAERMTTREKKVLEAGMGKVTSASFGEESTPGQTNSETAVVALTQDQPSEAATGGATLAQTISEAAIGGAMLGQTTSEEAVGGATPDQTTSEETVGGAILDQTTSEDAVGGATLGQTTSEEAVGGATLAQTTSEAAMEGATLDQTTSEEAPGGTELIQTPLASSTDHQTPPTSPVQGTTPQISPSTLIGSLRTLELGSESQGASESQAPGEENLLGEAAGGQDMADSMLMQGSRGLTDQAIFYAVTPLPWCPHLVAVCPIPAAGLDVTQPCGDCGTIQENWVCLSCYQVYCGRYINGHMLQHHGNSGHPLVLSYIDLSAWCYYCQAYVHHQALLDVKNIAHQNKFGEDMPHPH

residual percentage in HUMAN PLASMA [1] [%]	residual percentage in RAT PLASMA (Stability in rat plasma) [%]	residual percentage in HUMAN S9 FRACTION [2] [%]	IC50 (recombinant human HDAC1) [µM]	residual percentage in RAT S9 FRACTION [3] [%]	IC50 (recombinant human HDAC6) [µM]	SMILES
97	62	86	> 200	69	0.096	CC(c1ccc(-c2nnc(C(F)F)o2)cc1F)n1cc(-c2ccc(N)nc2)nn1 (stereo not drawn) [compound 185, 5-(1-(1-(4-(5-(difluoromethyl)-1,3,4-oxadiazol-2-yl)-2-fluorophenyl)ethyl)-1H-1,2,3-triazol-4-yl)pyridin-2-amine]
60	80	89	> 200	71	0.06	CCC[C@H](c1ccc(-c2nnc(C(F)F)o2)cc1)n1cc(-c2ccc(N)nc2)nn1 [compound 143, (R)-5-(1-(1-(4-(5-(difluoromethyl)-1,3,4-oxadiazol-2-yl)phenyl)butyl)-1H-1,2,3-triazol-4-yl)pyridin-2-amine]
96	83	30	> 200	13	0.049	COc1ccc(-c2nnn(Cc3ccc(-c4nnc(C(F)F)o4)cc3)n2)cc1OC [compound 128, 2-(difluoromethyl)-5-(4-((5-(3,4-dimethoxyphenyl)-2H-tetrazol-2-yl)methyl)phenyl)-1,3,4-oxadiazole]
75	92	76	> 200	85	0.043	FC(F)c1nnc(-c2ccc(Cn3nnc(-c4ccc5ccccc5n4)n3)cc2)o1 [compound 113, 2-(difluoromethyl)-5-(4-((5-(quinolin-2-yl)-2H-tetrazol-2-yl)methyl)phenyl)-1,3,4-oxadiazole]
86	93	52	> 200	18	0.038	CCNc1ccc(-c2nnn(Cc3ccc(-c4nnc(C(F)F)o4)cc3)n2)cn1 [compound 99, 5-(2-(4-(5-(difluoromethyl)-1,3,4-oxadiazol-2-yl)benzyl)-2H-tetrazol-5-yl)-N-ethylpyridin-2-amine]
83	74	92	> 200	99	0.022	O=C1Nc2ccc(-c3cn(Cc4ccc(-c5nnc(C(F)F)o5)cn4)nn3)cc2[C@@]12CCNC2 (single isomer, unassigned) [compound 273, 5-(1-((5-(5-(difluoromethyl)-1,3,4-oxadiazol-2-yl)pyridin-2-yl)methyl)-1H-1,2,3-triazol-4-yl)spiro[indoline-3,3′-pyrrolidin]-2-one]

The remaining lines, values behind:

SMILES	residual percentage in HUMAN PLASMA [1] [%]	residual percentage in RAT PLASMA (Stability in rat plasma) [%]	residual percentage in HUMAN S9 FRACTION [2] [%]	IC50 (recombinant human HDAC1) [µM]	residual percentage in RAT S9 FRACTION [3] [%]	IC50 (recombinant human HDAC6) [µM]
CN(C)C(=O)c1cccc(-c2nnn(Cc3ccc(-c4nnc(C(F)F)o4)cc3)n2)c1 [compound 81, 3-(2-(4-(5-(difluoromethyl)-1,3,4-oxadiazol-2-yl)benzyl)-2H-tetrazol-5-yl)-N,N-dimethylbenzamide]	87	87	78	> 200	14	0.033
Nc1nc2ccc(-c3cn(Cc4ccc(-c5nnc(C(F)F)o5)cn4)nn3)cc2[nH]1 [Compd. 30, 6-(1-((5-(5-(difluoromethyl)-1,3,4-oxadiazol-2-yl)pyridin-2-yl)methyl)-1H-1,2,3-triazol-4-yl)-1H-benzo[d]imidazol-2-amine]	87	68	80	> 200	96	0.01
O=C1NCc2ccc(-c3nnn(Cc4ccc(-c5nnc(C(F)F)o5)c(F)c4)n3)cc21 [compound 97, 6-(2-(4-(5-(difluoromethyl)-1,3,4-oxadiazol-2-yl)-3-fluorobenzyl)-2H-tetrazol-5-yl)isoindolin-1-one]	76	96	84	> 200	95	0.038
NC(=O)c1cc(-c2nnn(Cc3ccc(-c4nnc(C(F)F)o4)cc3)n2)cnc1N [compound 76, 2-amino-5-(2-(4-(5-(difluoromethyl)-1,3,4-oxadiazol-2-yl)benzyl)-2H-tetrazol-5-yl)nicotinamide]	74	73	53	> 200	89	0.032
CC(c1ccc(-c2nnc(C(F)F)o2)cn1)n1cc(-c2ccc(N)nc2)nn1 (stereo not drawn) [Compd. 59, 5-(1-(1-(5-(5-(difluoromethyl)-1,3,4-oxadiazol-2-yl)pyridin-2-yl)ethyl)-1H-1,2,3-triazol-4-yl)pyridin-2-amine]	87	83	98	> 200	97	0.024
Nc1ccc(-c2cn(Cc3cc(F)c(-c4nnc(C(F)F)o4)cc3F)nn2)cn1 [compound 39, 5-(1-(4-(5-(difluoromethyl)-1,3,4-oxadiazol-2-yl)-2,5-difluorobenzyl)-1H-1,2,3-triazol-4-yl)pyridin-2-amine]	83	71	100	> 200	96	0.018
CC(c1ccc(-c2nnc(C(F)F)o2)cc1)n1cc(-c2ccc(N)nc2)nn1 (stereo not drawn) [Compd. 117, 5-(1-(1-(4-(5-(difluoromethyl)-1,3,4-oxadiazol-2-yl)phenyl)ethyl)-1H-1,2,3-triazol-4-yl)pyridin-2-amine]	92	74	93	> 200	71	0.044
NC(=O)c1cccc(-c2nnn(Cc3ccc(-c4nnc(C(F)F)o4)cc3)n2)c1 [compound 75, 3-(2-(4-(5-(difluoromethyl)-1,3,4-oxadiazol-2-yl)benzyl)-2H-tetrazol-5-yl)benzamide]	96	76	85	> 200	90	0.032
O=C1Nc2ccc(-c3cn(Cc4ccc(-c5nnc(C(F)F)o5)cn4)nn3)cc2C12CCNC2 (stereo not drawn) [compound 28, 5-(1-((5-(5-(difluoromethyl)-1,3,4-oxadiazol-2-yl)pyridin-2-yl)methyl)-1H-1,2,3-triazol-4-yl)spiro[indoline-3,3′-pyrrolidin]-2-one]	74	64	98	> 200	97	0.013
